# Test results: PubChem BioAssay AID493130 (Broad Institute, 2011)
# Records with an inconclusive call do not appear. The source made the active and inactive calls.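 The calls were made as follows: active = signal-lowering compounds whose fitted half-maximal concentration is at most ten times their highest tested dose; inconclusive = flat fit between -30 and -70%, or poor fit; inactive = flat within 30%, signal rising, or potency beyond limit.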
# Target: POS-1 (Caenorhabditis elegans) binding to mex-3 RNA
# Experiment: C. elegans POS-1 RNA interaction disruptors – biochemical, fluorescence polarization, cherry-picked samples, set 2, counter-screen for MEX-5 RNA-binding inhibitor project, dose response (AID 493130);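 also: POS-1 as maltose binding protein fusion made in E. coli with FITC RNA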
# Conditions: POS-1/mex-3 RNA fluorescence polarization, 1 h
row,Compound,AC50
1,Cc1cc(O)c(-c2cc(O)c(C)cc2O)cc1O,10.1 µM
2,NS(=O)(=O)c1ccc(-c2ccc(C=C3C(=O)NC(=S)NC3=O)o2)cc1,8.28 µM
3,CN1CCN(c2ccc([N+](=O)[O-])c3no[n+]([O-])c23)CC1,3.3 µM
4,CCN(CC)c1ccc(/C=C(/C#N)c2nc3ccc(C)cc3[nH]2)c(OC(C)C)c1,1.61 µM
5,Cc1cc(-c2csc(N)n2)c(C)n1C,8.77 µM
6,O=c1nc2c(O)cccn2c2c1c(=O)[nH]c1ccccc12,2.46 µM
7,Cc1cccc(N2C(=O)NC(=O)/C(=C/c3cc4c(cc3[N+](=O)[O-])OCO4)C2=O)c1,2.94 µM
8,O=c1[nH]n2c(=O)c3c([nH]c2c1N=Nc1ccccc1)CCC3,0.677 µM
9,C#CCN1C(=O)S/C(=C\c2cc3c(cc2OC)OCO3)C1=O,8.97 µM
10,CCCCOc1ccc2c(c1)/C(=C(\C(Cl)=C(Cl)Cl)[N+](=O)[O-])N2,8.54 µM

# Same assay, conditions: POS-1/mex-3 RNA fluorescence polarization, 1 h; at 10 µM (top of the series)
row,Compound,"activity change, negative = inhibition"
1,Cn1c(O)c(N=Nc2ccc(F)cc2)c2ccccc21,inactive
2,O=C1N=c2ccccc2=C1c1sc(NS(=O)(=O)c2ccccc2)nc1O,inactive
3,CCc1cc(-c2n[nH]c(C)c2-c2nc3ccccc3s2)c(O)cc1OCC(=O)NN,inactive
4,COc1ccc(NCc2n[nH]c(=O)c3ccccc23)cc1,inactive
5,O=Nc1[nH]c(=O)c(/C=C(\O)c2ccccc2)nc1NO,inactive
6,CC1=NOC(=O)/C1=C/c1ccc2c(c1)OCO2,inactive
7,O=C(NC(=S)NNS(=O)(=O)c1ccccc1)c1ccc([N+](=O)[O-])cc1,inactive
8,O=C(C1=NN(c2ccccc2)C2C(=O)N(c3ccccc3)C(=O)C12)c1ccccc1 (configuration not stated),inactive
9,Cn1nc(C(=O)NNC(=O)c2ccc(Cl)cc2)ccc1=O,inactive
10,O=S(=O)(O)c1nc2ccccc2n1Cc1ccc(Cl)cc1Cl,inactive
11,CNC(=O)c1c(NC(=O)c2ccc(S(=O)(=O)N(C)c3ccccc3)cc2)sc2c1CCN(C(C)C)C2,inactive
12,COc1ccc(/C=C/C(=O)N/C(=C\c2ccco2)C(=O)NCCc2nc3ccccc3[nH]2)cc1,inactive
13,O=C(O)/C=C/C(=O)NNc1ncnc2ccccc12,inactive
14,CC1=CC2=NC(=O)/C(=C\c3ccc(-c4cccc(Cl)c4)o3)C(=N)N2O1,inactive
15,CCS(=O)(=O)c1ccc2oc(=O)c(/C=C(\O)c3ccc(Cl)cc3)nc2c1,inactive
16,Cn1c(O)c(/C=N/NC(=O)c2cc3ccccc3cc2O)c2ccccc21,inactive
17,CC(C)c1cc[n+](-c2nc([O-])sc2C=O)cc1,inactive
18,CC1(N2CCOCC2)CC2(O)C(=[N+]1[O-])CCc1c2no[n+]1[O-] (configuration not stated),inactive
19,Cn1c(=O)n(C)c2cc(/C=N/N=C3/NC(=O)C(CC(=O)O)S3)ccc21 (configuration not stated),inactive
20,CN1/C(=C\C=C(/C#N)C(=O)Nc2ccccc2F)C(C)(C)c2ccccc21,inactive
21,C#CCN1C(=O)S/C(=C\c2ccc(-c3ccc(Cl)c(C(=O)O)c3)o2)C1=O,inactive

row,Compound,"activity change, negative = inhibition"
1,COc1ccc(-c2csc(Nc3ccc(S(N)(=O)=O)cc3)n2)cc1OC,inactive
2,COc1cccc2cc(-c3nc(-c4cccs4)cs3)c(=O)oc12,inactive
3,CN1CCc2c(sc(NC(=O)C3CCCN3S(=O)(=O)c3ccc(Cl)s3)c2C(N)=O)C1 (configuration not stated),inactive
4,O=C(O)CCSc1nc2ccccc2n1Cc1ccccc1,inactive
5,Cc1ccc(C(=O)N/C(=C\c2ccc(-c3ccc([N+](=O)[O-])cc3)o2)C(=O)NC2CCS(=O)(=O)C2)cc1 (configuration not stated),inactive
6,CC/C(=N/Nc1cccc(C)c1)c1cnnc(SC)n1,inactive
7,Fc1ccc(N=c2ssnc2Cl)c(F)c1,inactive
8,Cc1ccc([C@@H]2C3COCC=C3C(C#N)=C(N)C2(C#N)C#N)o1 (some centres not stated),inactive
9,CC1CN(Cc2c(O)ccc3c2oc(=O)c2ccccc23)CC(C)O1 (configuration not stated),inactive
10,O=c1[nH]c(=S)n(-c2ccc(Cl)cc2)c(O)c1C=Nc1ccc(N2CCOCC2)cc1,inactive
11,O=C(O)CCCCCN1C(=O)C(O)=C(C(=O)/C=C/c2ccccc2)C1c1ccccc1[N+](=O)[O-] (configuration not stated),inactive
12,COc1ccc(C(CC(=O)N2CCCC2)c2c(OC)cc(OC)c3ccc(=O)oc23)cc1 (configuration not stated),inactive
13,CCc1nnc(NS(=O)(=O)c2ccc(N=Cc3c(O)n(-c4ccc(Cl)cc4)c(=O)[nH]c3=O)cc2)s1,inactive
14,CC1=C(C(=O)OCc2ccccc2)C(c2ccc(N(C)C)cc2)NC(=O)N1 (configuration not stated),inactive
15,Oc1c(Cl)cc(Cl)c2c1NCCC2,inactive
16,COC(=O)C1=C(C)N(c2ccc(C)c(C)c2)/C(=C/c2cccs2)C1=O,inactive
17,COc1cc2c(cc1N/C=C(\C#N)c1nc(-c3ccc(F)cc3)cs1)oc1ccccc12,inactive
18,CCN1C(=O)c2cccc3c(NC(=O)C4CCCCC4)ccc1c23,inactive
19,Cc1ccc(C(=O)NNc2ncnc3c2cnn3C)cc1,inactive
20,CN(C)C(=O)Oc1ccc2c(c1)O/C(=C\c1ccccc1)C2=O,inactive
21,C#CCOCCOCCOCCNc1nc(N2CCN(C(=O)[C@H](CCCCN)n3cc(C(N)CO)nn3)CC2)nc(N2CCN(C(=O)[C@H](CCC(=O)O)n3cc(C(N)CC(C)C)nn3)CC2)n1 (some centres not stated),inactive

row,Compound,"activity change, negative = inhibition"
1,COc1ccccc1-c1cn[nH]c1-c1ccc(O)cc1O,inactive
2,COCCNc1ncnc2nc[nH]c12,inactive
3,O=C(NNC(=O)c1cccs1)c1csc(N2CCOCC2)n1,inactive
4,N#CC1=C(N)Oc2c(O)cc3ccccc3c2C1c1ccsc1 (configuration not stated),inactive
5,CSCC(C)N1CCC(n2nccc2NC(=O)CCc2ccccc2)CC1 (configuration not stated),inactive
6,C=CCn1c(O)c(N=NC(=S)Nc2cccc(C)c2)c2ccccc21,inactive
7,CCOc1ccc(/C=N/n2c(C)nc3ccccc3c2=O)cc1,inactive
8,COc1ccc(/C=N/NC(=O)c2ccc(=O)[nH]n2)cc1OC,inactive
9,CCS(=O)(=O)C1=NN2C(=N)/C(=C\c3ccc(SCc4ccco4)o3)C(=O)N=C2S1,inactive
10,Cc1ccc(S(=O)(=O)c2cc3c(=O)n4ccccc4nc3n(Cc3ccco3)c2=N)cc1C,inactive
11,CCOC(=O)N1CCN(c2nc3ccccc3nc2C(C#N)C(=O)NCCc2ccccc2)CC1 (configuration not stated),inactive
12,CCCc1cc(C(=O)Cc2ccc(C(=O)OCC)o2)c(O)cc1O,inactive
13,O=C(NNC(=O)c1ccccc1Cl)c1csc(N2CCOCC2)n1,inactive
14,Cn1c(O)c(C2=c3ccccc3=NC2=O)[nH]c1=S,inactive
15,COc1cc(/C=N/NC(=O)CNS(=O)(=O)c2ccc(C)cc2)cc(OC)c1OC,inactive
16,CC(=O)Nc1ccc(/C=N/NC(=O)CNS(=O)(=O)c2ccccc2)cc1,inactive
17,COc1ccc(CCNc2c3ccccc3nc3ccccc23)cc1OC,inactive
18,Cc1c(C#N)c(O)[nH]c(=O)c1N=Nc1ccc(S(N)(=O)=O)cc1,inactive
19,CCOC(=O)Cc1csc(NC(=O)c2sc3nc4ccc(CC)cc4cc3c2N)n1,inactive
20,COc1ccc(CC(=O)NNc2ncnc3c2cnn3C)cc1,inactive
21,COc1ccccc1CN1CC(C(=O)NCCN(C)CCc2ccccc2)CCC1=O (configuration not stated),inactive

row,Compound,"activity change, negative = inhibition"
1,CCCn1c(=N)c(C(=O)NC2CCCC2)cc2c(=O)n3cccc(C)c3nc21,inactive
2,O=C(NNC(=O)c1ccc(O)c(Cl)c1)c1cccc(S(=O)(=O)N2CCOCC2)c1,inactive
3,CS(=O)(=O)/C(C#N)=C/c1c(-c2ccccc2)nc2n1CCS2,inactive
4,COc1cc(C(=O)NC(=S)NNC(=O)c2cnccn2)cc(OC)c1OC,inactive
5,COc1ccc(CN2C(=O)NC(=O)/C(=C\c3ccco3)C2=O)cc1,inactive
6,Nc1cnccc1C(=O)O,inactive
7,Cc1cc(C(=O)N/N=C/c2ccc(-c3ccc(C)c(Cl)c3)o2)n[nH]1,inactive
8,Cn1ncc2c(NNC(=O)c3ccc(Cl)cc3Cl)ncnc21,inactive
9,COC(=O)c1ccc(CC(=O)c2c(C)cc(O)cc2O)o1,inactive
10,Cc1cc(C)cc(NC(=O)N(C)Cc2ccccc2)c1,inactive
11,CCOC(=O)C1(C)/C(=N/Nc2cccc(Cl)c2)C(=O)C(=O)N1c1ccccc1 (configuration not stated),inactive
12,CCCCN(C(=O)C1=COCCO1)c1c(N)n(Cc2ccccc2)c(=O)[nH]c1=O,inactive
13,CNC(=O)c1c(NC(=O)c2nc3ccccc3s2)sc2c1CCC2,inactive
14,COCCN1CCC(CNCc2cn(-c3cc(C)ccc3C)nc2-c2ccccc2)C1 (configuration not stated),inactive
15,Nc1nc(Cl)nc2ccc(Br)cc12,inactive
16,COc1cc2c3c(c1OC)-c1cc(O)ccc1CC3NCC2 (configuration not stated),inactive
17,Cc1c(C=O)c(Cl)n(C)c(=O)c1C#N,inactive
18,COCc1cc(C)nc(N/N=C/c2ccc(-c3cc(C(=O)O)ccc3Cl)o2)c1C#N,inactive
19,C=CCn1c(O)c(N=NC(=O)CNC(=O)/C=C/c2ccco2)c2ccccc21,inactive
